Experimental findings from patent US20050197350A1, “Novel quinoline, tetrahydroquinazoline, and pyrimidine derivatives and methods of treatment related to the use thereof” (TAISHO PHARMACEUTICAL CO., LTD., priority 2003, published 2005) are described below.

In this assay the test system is MCH receptors. Nature of the assay: MCH receptor activity class (method not given).
Setting [1] is: class by percent of control at 10^−7 M or IC50.
Setting [2] is: class 1-3 by percent of control at 10^-7 M or IC50.
[3] abbreviates: MCH receptor activity class 1-3 (percent of control at 10^-7 M or IC50).
[4] abbreviates: class by percent of control at 10^-7 M or IC50.
The mark [5] stands for this setting: activity class per percent of control at 10^-7 M or IC50.
The mark [6] stands for this setting: activity class 1-3: percent of control at 10^-7 M or IC50.
Where [7] appears, read: MCH receptor, class by percent of control at 10^-7 M or IC50.

In the case of `Cc1cc(N(C)C)nc(N[C@H]2CC[C@@H](CNC(=O)c3ccc(Cl)cc3)CC2)n1` [compound 2770, 4-chloro-N-[(cis-4-{[4-(dimethylamino)-6-methylpyrimidin-2-yl]amino}cyclohexyl)methyl]benzamide], the class under setting [1] is 2 (Class 2: The value of percent of control at 10^−7 M was from 40% to 60% or the value of IC′50 was from 50 nM to 200 nM.).

Consider `Cc1cc(C(=O)NC[C@H]2CC[C@@H](Nc3nccc(N(C)C)n3)CC2)c(C(F)(F)F)o1` [compound 415], for which the class under setting [2] is given as 3 (Class 3 The value of percent of control at 10^−7 M was more than 60% or the value of IC50 was more than 200 nM.). Same read-out and setting: to `Cc1cc(C(=O)N[C@H]2CC[C@@H](Nc3nc4c(c(N(C)C)n3)CCCC4)CC2)c(C)o1` [compound 507] belongs 1 (Class 1: The value of percent of control at 10^−7 M was less than 40% or the value of IC50 was less than 50 nM.). As to `CCCc1ccccc1NC(=O)NC[C@H]1CC[C@@H](Nc2cc(N(C)C)c3ccccc3n2)CC1` [compound 2382], the class under setting [3] was 3 (Class 3 The value of percent of control at 10^−7 M was more than 60% or the value of IC50 was more than 200 nM.).

For `CCCCc1ccc(C(=O)N[C@H]2CC[C@@H](Nc3nc(C)cc(N(C)C)n3)CC2)cc1` [compound 2952], under setting [1], the class is on record as 3 (Class 3 The value of percent of control at 10^−7 M was more than 60% or the value of IC50 was more than 200 nM.). Take `Cc1cnc(N[C@H]2CC[C@@H](CNC(=O)c3cccc(OC(F)(F)F)c3)CC2)nc1N(C)C` [compound 2699, N-[(cis-4-{[4-(dimethylamino)-5-methylpyrimidin-2-yl]amino}cyclohexyl)methyl]-3-(trifluoromethoxy)benzamide]: the class under setting [1] is reported as 2 (Class 2: The value of percent of control at 10^−7 M was from 40% to 60% or the value of IC′50 was from 50 nM to 200 nM.). Regarding `CN(C)c1nc(N[C@H]2CC[C@@H](CNC(=O)Cc3ccc(Cl)cc3)CC2)nc2c1CCCC2` [compound 590], the class under setting [2] is 3 (Class 3 The value of percent of control at 10^−7 M was more than 60% or the value of IC50 was more than 200 nM.). Regarding `CN(C)c1nc(N[C@H]2CC[C@@H](NC(=O)C3C[C@H]3c3ccccc3)CC2)nc2c1CCCC2` (stereo partly drawn) [compound 482, (2R)-N-(cis-4-{[4-(dimethylamino)-5,6,7,8-tetrahydroquinazolin-2-yl]amino}cyclohexyl)-2-phenylcyclopropanecarboxamide], the class under setting [2] is 2 (Class 2: The value of percent of control at 10^−7 M was from 40% to 60% or the value of IC′50 was from 50 nM to 200 nM.). On to `Cc1cc(CN[C@H]2CC[C@@H](Nc3nc4c(c(N(C)C)n3)CCCC4)CC2)c(C)n1-c1ccccc1` [compound 1351], for which the class under setting [4] was 3 (Class 3 The value of percent of control at 10^−7 M was more than 60% or the value of IC50 was more than 200 nM.). With `CN(C)c1ccnc(N[C@H]2CC[C@@H](CNC(=O)Nc3ccc(C#N)cc3)CC2)n1` [compound 2434], under setting [3], the class is on record as 3 (Class 3 The value of percent of control at 10^−7 M was more than 60% or the value of IC50 was more than 200 nM.).

Consider `COc1cccc(OC)c1CNC[C@H]1CC[C@@H](Nc2cc(N(C)C)c3ccccc3n2)CC1` [compound 1122], for which the class under setting [5] is 2 (Class 2: The value of percent of control at 10^−7 M was from 40% to 60% or the value of IC′50 was from 50 nM to 200 nM.).

`Cc1ccc(C(=O)N[C@H]2CC[C@@H](Nc3nc4c(c(N(C)C)n3)CCCC4)CC2)cc1` [compound 487]: the class under setting [2] is on record as 2 (Class 2: The value of percent of control at 10^−7 M was from 40% to 60% or the value of IC′50 was from 50 nM to 200 nM.). As to `Cc1cccc(C(C)(C)C)c1NC(=O)N[C@H]1CC[C@@H](Nc2nc3c(c(N(C)C)n2)CCCC3)CC1` [compound 1683, N-(2-tert-butyl-6-methylphenyl)-N′-(cis-4-{[4-(dimethylamino)-5,6,7,8-tetrahydroquinazolin-2-yl]amino}cyclohexyl)urea], the class under setting [6] was 2 (Class 2: The value of percent of control at 10^−7 M was from 40% to 60% or the value of IC′50 was from 50 nM to 200 nM.). As to `COc1ccc(NC(=S)N[C@H]2CC[C@@H](Nc3nccc(N(C)C)n3)CC2)cc1OC` [compound 2266], the class under setting [4] is on record as 2 (Class 2: The value of percent of control at 10^−7 M was from 40% to 60% or the value of IC′50 was from 50 nM to 200 nM.). On the same count and under the same terms, then `COc1ccccc1CCNC[C@H]1CC[C@@H](Nc2nc3c(c(N(C)C)n2)CCCC3)CC1` [compound 1504], with 3 (Class 3 The value of percent of control at 10^−7 M was more than 60% or the value of IC50 was more than 200 nM.). For `CN(C)c1cc(N[C@H]2CC[C@@H](NC(=O)Oc3ccc4ccccc4c3)CC2)nc2ccccc12` [compound 1549], under setting [6], the class is 3 (Class 3 The value of percent of control at 10^−7 M was more than 60% or the value of IC50 was more than 200 nM.). In the case of `CN(C)c1nc(N[C@H]2CC[C@@H](CNC(=O)c3cccc(Br)c3)CC2)nc2c1CCCC2` [compound 583, 3-bromo-N-[(cis-4-{[4-(dimethylamino)-5,6,7,8-tetrahydroquinazolin-2-yl]amino}cyclohexyl)methyl]benzamide], under setting [2], the class was 2 (Class 2: The value of percent of control at 10^−7 M was from 40% to 60% or the value of IC′50 was from 50 nM to 200 nM.). Consider `COc1cc(Br)cc(CN[C@H]2CC[C@@H](Nc3cc(N(C)C)c4ccccc4n3)CC2)c1O` [compound 1092], for which the class under setting [5] is 3 (Class 3 The value of percent of control at 10^−7 M was more than 60% or the value of IC50 was more than 200 nM.). In the case of `CN(C)c1nc(N[C@H]2CC[C@@H](CNC(=O)OCc3ccc([N+](=O)[O-])cc3)CC2)nc2c1CCCC2` [compound 618], the class under setting [4] is 3 (Class 3 The value of percent of control at 10^−7 M was more than 60% or the value of IC50 was more than 200 nM.). Consider `CN(C)c1cc(N[C@H]2CC[C@@H](CNC(=O)C3C[C@H]3c3ccccc3)CC2)nc2ccccc12` (stereo partly shown) [compound 173], for which the class under setting [7] is 3 (Class 3 The value of percent of control at 10^−7 M was more than 60% or the value of IC50 was more than 200 nM.). Consider `CN(C)c1cc(N[C@H]2CC[C@@H](CNC(=O)c3c(F)cccc3Cl)CC2)nc2ccccc12` [compound 232], for which the class under setting [4] was 3 (Class 3 The value of percent of control at 10^−7 M was more than 60% or the value of IC50 was more than 200 nM.). Take `COc1ccc(C(=O)N[C@H]2CC[C@@H](Nc3cc(N(C)C)c4ccccc4n3)CC2)cc1OCc1ccccc1` [compound 750]: the class under setting [4] is 2 (Class 2: The value of percent of control at 10^−7 M was from 40% to 60% or the value of IC′50 was from 50 nM to 200 nM.). Turning to `CCCCCCNC(=S)N[C@H]1CC[C@@H](Nc2nc3c(c(N(C)C)n2)CCCC3)CC1` [compound 1942], under setting [7], the class is listed as 3 (Class 3 The value of percent of control at 10^−7 M was more than 60% or the value of IC50 was more than 200 nM.).

Consider `CC(CN[C@H]1CC[C@@H](Nc2nc3c(c(N(C)C)n2)CCCC3)CC1)c1ccccc1` (relative stereo) [compound 1352], for which the class under setting [4] is on record as 3 (Class 3 The value of percent of control at 10^−7 M was more than 60% or the value of IC50 was more than 200 nM.). As to `CN(C)c1cc(N[C@H]2CC[C@@H](CNCc3ccc4c(c3)OCO4)CC2)nc2ccccc12` [compound 1182], the class under setting [4] is 3 (Class 3 The value of percent of control at 10^−7 M was more than 60% or the value of IC50 was more than 200 nM.). Consider `Cc1cnc(N[C@H]2CC[C@@H](CNC(=O)c3ccc(OC(F)(F)F)cc3)CC2)nc1N(C)C` [compound 2700, N-[(cis-4-{[4-(dimethylamino)-5-methylpyrimidin-2-yl]amino}cyclohexyl)methyl]-4-(trifluoromethoxy)benzamide], for which the class under setting [1] is given as 2 (Class 2: The value of percent of control at 10^−7 M was from 40% to 60% or the value of IC′50 was from 50 nM to 200 nM.). In the case of `CN(C)c1cc(N[C@H]2CC[C@@H](NCc3c[nH]c4ccc(Br)cc34)CC2)nc2ccccc12` [compound 1093], under setting [5], the class was 3 (Class 3 The value of percent of control at 10^−7 M was more than 60% or the value of IC50 was more than 200 nM.).

Take `CN(C)c1cc(N[C@H]2CC[C@@H](CNCC=C(c3ccccc3)c3ccccc3)CC2)nc2ccccc12` [compound 1158]: under setting [4], the class is reported as 1 (Class 1: The value of percent of control at 10^−7 M was less than 40% or the value of IC50 was less than 50 nM.). With `CN(C)c1cc(N[C@H]2CC[C@@H](CNCc3c[nH]c4ccccc34)CC2)nc2ccccc12` [compound 1124], under setting [5], the class is 3 (Class 3 The value of percent of control at 10^−7 M was more than 60% or the value of IC50 was more than 200 nM.). Turning to `CN(C)c1cc(N[C@H]2CC[C@@H](CNCc3ccc(N(C)CCC#N)cc3)CC2)nc2ccccc12` [compound 1202], the class under setting [4] was 3 (Class 3 The value of percent of control at 10^−7 M was more than 60% or the value of IC50 was more than 200 nM.). As to `CN(C)c1nc(N[C@H]2CC[C@@H](CNC(=O)c3c(F)ccc(F)c3F)CC2)nc2c1CCCC2` [compound 662], under setting [4], the class was 3 (Class 3 The value of percent of control at 10^−7 M was more than 60% or the value of IC50 was more than 200 nM.). Turning to `COc1ccc2c(CC(=O)N[C@H]3CC[C@@H](Nc4nc5c(c(N(C)C)n4)CCCC5)CC3)cc(=O)oc2c1` [compound 990], under setting [5], the class is listed as 1 (Class 1: The value of percent of control at 10^−7 M was less than 40% or the value of IC50 was less than 50 nM.). In the case of `CN(C)c1cc(N[C@H]2CC[C@@H](CNC(=O)c3cc(C(F)(F)F)ccc3F)CC2)nc2ccccc12` [compound 192], the class under setting [7] is reported as 3 (Class 3 The value of percent of control at 10^−7 M was more than 60% or the value of IC50 was more than 200 nM.). For `COc1cccc(Oc2ncccc2C(=O)N[C@H]2CC[C@@H](Nc3ncc(C)c(N(C)C)n3)CC2)c1` [compound 2887, N-(cis-4-{[4-(dimethylamino)-5-methylpyrimidin-2-yl]amino}cyclohexyl)-2-(3-methoxyphenoxy)nicotinamide], the class under setting [1] is given as 1 (Class 1: The value of percent of control at 10^−7 M was less than 40% or the value of IC50 was less than 50 nM.).
